# Experimental data: US5231107A, “Derivatives of the oxime of 1,2,5,6-tetrahydropyridine 3-carboxaldehyde, the process for their preparation, their use as medicaments and the compositions containing them” (priority 1987, dated 1993)
# Like-named read-outs stand apart in the source and are kept apart here.
# Key:
# in vivo [1] = test: in vivo; set-up: species or system male mice (CD1 Charles Rivers); conditions: mouse, in vivo; oral route; male CD1 mice; method of Miller and Tainter; read-out: DE50 (dose which causes diarrhoea in 50% of the animals)
# Experimental: The test is carried out on male mice (CD1 Charles Rivers) weighing 25 to 30 g, which have fasted for 6 hours. The product dissolved at 5% in methocel is administered by oral route by means of an oesophage probe.
# Control animals receive only the excipient.
# After treatment, the animals are placed separately in cages of which the base is covered with blotting paper, and they are put under observation for 30, 60, 120 and 180 minutes.
# The sheets of absorbent paper are changed after each observation.
# The consistency of the feces is evaluated according to the method of Randall and Baruth (Arch. Int. Pharmacodyn. 220, 94, 1976) according to the following scale of values.
# 1: feces slightly soft, with or without a damp halo,
# 2: feces slightly soft, with a well-defined circle of humidity,
# 3: feces soft with a large circle of humidity,
# 4: feces without consistency with a very large circle of humidity.
# For each product, the dose is noted which causes diarrhoea in 50% of the animals according to the method of Miller and Tainter (Proc. Soc. Exp. Biol. Med., 57, 261, 1944).
# [2] = tested on: ileum isolated from guinea-pig; test: Test of ileum isolated from guinea-pig; conditions: Cavia porcellus, agonist activity, Tyrode solution, 37° C., read-out: pD2 (negative logarithm of the dose which produces 50% of the maximum effect) (converted)
# Experimental: Pieces of ileum are removed from guinea-pigs killed by decapitation. The isolated ileum is placed in 10 cm^3 of Tyrode solution at 37° C. and aerated with a mixture of oxygen (95%) and carbon dioxide gas (5%). The contractions due to the products are registered by means of a detector connected to a polygraph. […].
# The possible antagonist activity of the products is tested vis-a-vis acetylcholine.
# The agonist activity is expressed in pD2 (negative logarithm of the dose which produces 50% of the maximum effect).
# The antagonist activity is expressed in DE50 (dose reducing by 50% the maximum response induced by acetylcholine).
# Hypothermic activity = assay type: in vivo, male mice (CD1 Charles Rivers); conditions: Mus musculus, read-out: Effective dose (-1° C.)
# Experimental: (§1) The test is carried out on male mice (CD1 Charles Rivers) weighing 25-30 g, which have fasted for 6 hours.
# The temperature of the body is noted by means of a thermocouple inserted about 1.5 cm in the rectum and connected to an electric temperature recorder.
# The products are administered by oral or sub-cutaneous route and the temperatures are noted at the instant 0 and at 30 minutes, 1 hour, 2 hours and 2-and-a-half hours after treatment.
# The degree of hypothermia is evaluated as the difference between the treated animals and the controls, and the dose necessary to reduce the body temperature by 1° C. is noted.
# [3] = Variation of the body temperature (duration of action); assay type: in vivo, male mice (CD1 Charles Rivers)
# Experimental: as §1
# The temperature of the body is noted by means of a thermocouple inserted about 1.5 cm in the rectum and connected to an electric temperature recorder. […]
# The duration of action of the products is determined, using the doses able to reduce the temperature by 1° to 1.5° C.
# in vivo [4] = conditions: mouse, po
# Experimental: The test was carried out on male mice (CD1 Charles Rivers), of 22 to 24 g, without food for 16 hours. […] The mortality is noted during the 7 days following the treatment.
smiles,measurement,setting,value
"CON=CC1=CCCN(C(=O)Oc2ccc(C(C)C)cc2)C1 [Example 13, Methyl ether of 1-p-isopropylphenyloxycarbonyl-1,2,5,6-tetrahydropyridin-3-carboxaldehyde oxime]",ED50,in vivo [1],> 50 mg/kg
same,EC50,[2],> 100 µM
same,ED (-1 C),Hypothermic activity; oral route (O.R.),3.4 mg/kg
same,ED (-1 C),Hypothermic activity; sub-cutaneous route (SC.R),8.8 mg/kg
same,Variations of the body temperature,"[3]; 6.25 mg/kg os, 0 min",+0.2 °C
same,Variations of the body temperature,"[3]; 6.25 mg/kg os, 30 min",-0.4 °C
same,Variations of the body temperature,"[3]; 6.25 mg/kg os, 60 min",-1.6 °C
same,Variations of the body temperature,"[3]; 6.25 mg/kg os, 120 min",-0.4 °C
same,Variations of the body temperature,"[3]; 6.25 mg/kg os, 180 min",-0.1 °C
same,Variations of the body temperature,"[3]; 12.5 mg/kg sc, 0 min",+0.2 °C
same,Variations of the body temperature,"[3]; 12.5 mg/kg sc, 60 min",-0.7 °C
same,Variations of the body temperature,"[3]; 12.5 mg/kg sc, 120 min",-1.4 °C
same,Variations of the body temperature,"[3]; 12.5 mg/kg sc, 180 min",-1.1 °C
same,LD50 at 168 h,in vivo [4],> 1000 mg/kg
CON=CC1=CCCN(C(=O)Oc2ccc(OC)c(OC)c2)C1 [Example 14],ED50,in vivo [1],> 50 mg/kg
same,EC50,[2],> 100 µM
same,ED (-1 C),Hypothermic activity; oral route (O.R.),0.7 mg/kg
same,ED (-1 C),Hypothermic activity; sub-cutaneous route (SC.R),0.7 mg/kg
same,Variations of the body temperature,"[3]; 1. mg/kg os, 0 min",+0.1 °C
same,Variations of the body temperature,"[3]; 1. mg/kg os, 30 min",-1.1 °C
same,Variations of the body temperature,"[3]; 1. mg/kg os, 60 min",-1.4 °C
same,Variations of the body temperature,"[3]; 1. mg/kg os, 120 min",-0.2 °C
same,Variations of the body temperature,"[3]; 1. mg/kg os, 180 min",+0.1 °C
same,Variations of the body temperature,"[3]; 1. mg/kg sc, 0 min",+0.2 °C
same,Variations of the body temperature,"[3]; 1. mg/kg sc, 30 min",-0.7 °C
same,Variations of the body temperature,"[3]; 1. mg/kg sc, 60 min",-1.3 °C
same,Variations of the body temperature,"[3]; 1. mg/kg sc, 120 min",-0.5 °C
same,LD50 at 168 h,in vivo [4],175 mg/kg
"CON=CC1=CCCN(C(=O)Oc2ccc(Cl)cc2)C1 [Example 12, Methyl ether of 1-parachlorophenyloxy-carbonyl-1,2,5,6-tetrahydropyridin-3-carboxaldehyde oxime]",ED50,in vivo [1],> 50 mg/kg
same,EC50,[2],> 100 µM
same,ED (-1 C),Hypothermic activity; oral route (O.R.),2.2 mg/kg
same,ED (-1 C),Hypothermic activity; sub-cutaneous route (SC.R),2.9 mg/kg
same,Variations of the body temperature,"[3]; 3.12 mg/kg os, 0 min",+0.1 °C
same,Variations of the body temperature,"[3]; 3.12 mg/kg os, 30 min",-0.9 °C
same,Variations of the body temperature,"[3]; 3.12 mg/kg os, 60 min",-1.4 °C
same,Variations of the body temperature,"[3]; 3.12 mg/kg os, 120 min",-0.3 °C
same,Variations of the body temperature,"[3]; 3.12 mg/kg sc, 0 min",-0.1 °C
same,Variations of the body temperature,"[3]; 3.12 mg/kg sc, 30 min",-0.1 °C
same,Variations of the body temperature,"[3]; 3.12 mg/kg sc, 60 min",-1.1 °C
same,Variations of the body temperature,"[3]; 3.12 mg/kg sc, 120 min",-1.2 °C
same,Variations of the body temperature,"[3]; 3.12 mg/kg sc, 180 min",-0.5 °C
same,LD50 at 168 h,in vivo [4],> 1000 mg/kg
"CON=CC1=CCCN(C(=O)Oc2ccc(C(C)(C)CC(C)(C)C)cc2)C1 [Example 22, 1-[4-(1,1,3,3-tetramethylbutyl)phenyloxycarbonyl]-1,2,5,6-tetrahydropyridine-3-carboxaldehyde-O-methyloxime]",ED50,in vivo [1],> 50 mg/kg
same,EC50,[2],100 µM
same,ED (-1 C),Hypothermic activity; oral route (O.R.),7 mg/kg
same,ED (-1 C),Hypothermic activity; sub-cutaneous route (SC.R),15 mg/kg
same,LD50 at 168 h,in vivo [4],500 mg/kg
"CCOC(=O)N1CCC=C(C=NOC)C1 [Example 2, Methyl ether of 1-ethoxycarbonyl-1,2,5,6-tetrahydropyridin-3-carboxaldehydeoxime]",ED50,in vivo [1],25 mg/kg
same,EC50,[2],33.9 µM
same,ED (-1 C),Hypothermic activity; oral route (O.R.),3.9 mg/kg
same,ED (-1 C),Hypothermic activity; sub-cutaneous route (SC.R),3.6 mg/kg
same,Variations of the body temperature,"[3]; 5. mg/kg os, 0 min",+0.2 °C
same,Variations of the body temperature,"[3]; 5. mg/kg os, 30 min",-1.2 °C
same,Variations of the body temperature,"[3]; 5. mg/kg os, 60 min",-1.1 °C
same,Variations of the body temperature,"[3]; 5. mg/kg os, 120 min",-0.1 °C
same,Variations of the body temperature,"[3]; 5. mg/kg sc, 0 min",+0.2 °C
same,Variations of the body temperature,"[3]; 5. mg/kg sc, 30 min",-1.5 °C
same,Variations of the body temperature,"[3]; 5. mg/kg sc, 60 min",-1.4 °C
same,Variations of the body temperature,"[3]; 5. mg/kg sc, 120 min",-0.1 °C
same,LD50 at 168 h,in vivo [4],175 mg/kg
"C=CCOC(=O)N1CCC=C(C=NOC)C1 [Example 4, Methyl ether of 1-allyloxycarbonyl-1,2,5,6-tetrahydropyridin-3-carboxaldehyde oxime]",ED50,in vivo [1],3 mg/kg
same,EC50,[2],> 100 µM
same,ED (-1 C),Hypothermic activity; oral route (O.R.),1.6 mg/kg
same,ED (-1 C),Hypothermic activity; sub-cutaneous route (SC.R),1.8 mg/kg
same,Variations of the body temperature,"[3]; 2. mg/kg os, 0 min",-0.1 °C
same,Variations of the body temperature,"[3]; 2. mg/kg os, 30 min",-1.2 °C
same,Variations of the body temperature,"[3]; 2. mg/kg os, 60 min",-1.1 °C
same,Variations of the body temperature,"[3]; 2. mg/kg os, 120 min",-0.1 °C
same,Variations of the body temperature,"[3]; 2. mg/kg os, 180 min",-0.1 °C
same,Variations of the body temperature,"[3]; 2. mg/kg sc, 0 min",-0.1 °C
same,Variations of the body temperature,"[3]; 2. mg/kg sc, 30 min",-0.9 °C
same,Variations of the body temperature,"[3]; 2. mg/kg sc, 60 min",-1.0 °C
same,Variations of the body temperature,"[3]; 2. mg/kg sc, 120 min",-0.2 °C
same,Variations of the body temperature,"[3]; 2. mg/kg sc, 180 min",-0.1 °C
same,LD50 at 168 h,in vivo [4],175 mg/kg
"CON=CC1=CCCN(C(=O)Oc2ccc(C)cc2)C1 [Example 21, 1-(4-methylphenyloxycarbonyl)-1,2,5,6-tetrahydropyridine-3-carboxaldehyde-O-methyloxime]",ED50,in vivo [1],> 50 mg/kg
same,EC50,[2],> 100 µM
same,ED (-1 C),Hypothermic activity; oral route (O.R.),1.5 mg/kg
same,ED (-1 C),Hypothermic activity; sub-cutaneous route (SC.R),1.2 mg/kg
same,LD50 at 168 h,in vivo [4],250 mg/kg
"CON=CC1=CCCN(C(=O)Oc2ccc(F)cc2)C1 [Example 20, 1(4-fluorophenyloxycarbonyl)-1,2,5,6-tetrahydropyridine-3-carboxaldehyde-O-methyloxime]",ED50,in vivo [1],> 50 mg/kg
same,EC50,[2],> 100 µM
same,ED (-1 C),Hypothermic activity; oral route (O.R.),3.2 mg/kg
same,ED (-1 C),Hypothermic activity; sub-cutaneous route (SC.R),1.5 mg/kg
same,LD50 at 168 h,in vivo [4],500 mg/kg
"COC(=O)C1=CCCN(C)C1 [Arecoline HBr, reference compound]",Variations of the body temperature,"[3]; 3.5 mg/kg sc, 0 min",-0.1 °C
same,Variations of the body temperature,"[3]; 3.5 mg/kg sc, 30 min",-1.5 °C
same,Variations of the body temperature,"[3]; 3.5 mg/kg sc, 60 min",-0.1 °C
same,Variations of the body temperature,"[3]; 3.5 mg/kg sc, 120 min",+0.2 °C
same,Variations of the body temperature,"[3]; 3.5 mg/kg sc, 180 min",+0.2 °C
same,Variations of the body temperature,"[3]; 200 mg/kg os, 0 min",+0.1 °C
same,Variations of the body temperature,"[3]; 200 mg/kg os, 30 min",-1.1 °C
same,Variations of the body temperature,"[3]; 200 mg/kg os, 60 min",-1.0 °C
same,Variations of the body temperature,"[3]; 200 mg/kg os, 120 min",-0.2 °C
same,Variations of the body temperature,"[3]; 200 mg/kg os, 180 min",-0.1 °C
"CON=CC1=CCCN(C(=O)Oc2ccc(Br)cc2)C1 [Example 19, 1-(4-bromophenyloxycarbonyl)-1,2,5,6-tetrahydropyridine-3-carboxaldehyde-O-methyloxime]",ED50,in vivo [1],> 50 mg/kg
same,EC50,[2],> 100 µM
same,ED (-1 C),Hypothermic activity; oral route (O.R.),1.7 mg/kg
same,ED (-1 C),Hypothermic activity; sub-cutaneous route (SC.R),1.3 mg/kg
same,LD50 at 168 h,in vivo [4],> 1000 mg/kg
"CON=CC1=CCCN(C(=O)Oc2ccccc2)C1 [Example 6, Methyl ether of 1-phenyloxycarbonyl-1,2,5,6-tetrahydropyridin-3-carboxaldehyde oxime]",ED50,in vivo [1],100 mg/kg
same,EC50,[2],> 100 µM
same,ED (-1 C),Hypothermic activity; oral route (O.R.),4.6 mg/kg
same,ED (-1 C),Hypothermic activity; sub-cutaneous route (SC.R),2.3 mg/kg
same,Variations of the body temperature,"[3]; 3.5 mg/kg sc, 0 min",-0.1 °C
same,Variations of the body temperature,"[3]; 3.5 mg/kg sc, 30 min",-0.6 °C
same,Variations of the body temperature,"[3]; 3.5 mg/kg sc, 60 min",-1.4 °C
same,Variations of the body temperature,"[3]; 3.5 mg/kg sc, 120 min",-0.9 °C
same,Variations of the body temperature,"[3]; 3.5 mg/kg sc, 180 min",0.1 °C
same,Variations of the body temperature,"[3]; 7.5 mg/kg os, 0 min",-0.1 °C
same,Variations of the body temperature,"[3]; 7.5 mg/kg os, 30 min",-1.1 °C
same,Variations of the body temperature,"[3]; 7.5 mg/kg os, 60 min",-1.6 °C
same,Variations of the body temperature,"[3]; 7.5 mg/kg os, 120 min",-0.6 °C
same,LD50 at 168 h,in vivo [4],500 mg/kg
